≈ marks a conversion by molar mass, not a printed value.

One data set concerns L. major promastigotes. Put plainly: Leishmania promastigote assay (3H-thymidine).
Data set [1] relates to Bacteroides fragilis, Clostridium perfringens, Clostridium difficele. Format: cell-based. The note with it: single concentration of compound (100 μM).
The nature of data set [2]: Determination of solubility in phosphate buffer pH 7.4. Format: physicochemical. The note with it: aqueous buffer at pH 7.4. On the procedure: Solubility of the compounds was determined by preparing a saturated solution of compound in 0.3 M phosphate buffer (pH 7.4±0.3) in a brown glass tube. The suspensions were rotated slowly for 24 hours. Aliquots were centrifuged for 10 minutes at 14.000 rpm and supernatants were diluted in 40% (v/v) acetonitrile in water prior to HPLC analysis. Concentrations of analytes were quantified against a standard curve and used as term of solubility.
The HPLC-UV method used for the assessment of solubility is the same as used in the in vitro metabolism assay.

Data set [3] has as its system Enterococcus faecalis ATCC29212. The data set can be described thus: MIC determination in broth microdilution assay.
Data set [4] has as its system Streptococcus pneumoniae #998 (clinical isolate). The data set can be described thus: MIC determination in broth microdilution assay.
Data set [5] has as its system Staphylococcus aureus ATCC29213. The data set can be described thus: MIC determination in broth microdilution assay.
Data set [6] deals with Staphylococcus aureus ATCC33591 (resistant to methicillin). The data set can be described thus: MIC determination in broth microdilution assay.
Data set [7] has as its system Staphylococcus intermedius #2357 (clinical isolate). Put plainly: MIC determination in broth microdilution assay.
Another data set deals with Eschericia coli ESS. The data set can be described thus: MIC determination in broth microdilution assay. The note with it: H: Eschericia coli ESS; NA: no activity.
For data set [8], the system named is Enterococcus faecium #17501 (vancomycin-resistant clinical isolate). Put plainly: MIC determination in broth microdilution assay.
Data set [9] in a line: Determination of metabolic stability (liver microsomes). The note with it: rat liver microsomes, 20 μM, 15 min at 37° C. The format is in vitro ADME, Wistar rat. The method, then: incubations were performed with Wistar rat liver microsomes (0.25 mg/ml) in 2% sodium bicarbonate solution. NADP (0.13 mg/ml), glucose-6-phosphate (0.63 mg/ml) and glucose-6-phosophate dehydrogenase (0.38 units/ml) were used as NADPH generation system and UDPGA (0.48 mg/ml) was added to include the phase II reaction, glucuronic acid conjugation, in the assay. After 5 minutes of pre-incubation the reaction was started by addition of the test article to give a final concentration of 20 μM. Samples were incubated for 15 min at 37° C. and the reactions were terminated by addition of equal volumes of acetonitrile. Blank incubations were performed at the same concentration but without addition of microsomes. Both blank and microsome-containing samples were made in replicats of three. Prior to analysis samples were centrifuged for 10 min. at 3500 rpm, HPLC system:
Initial conditions were 40% mobile phase A (acetonitrile) and 60% mobile phase B (10 mM ammonium acetate pH 9.5). During the first 20 minutes, the mobile phase was changed via a linear gradient to 90% A and 10% B. This was followed by a 5 minutes linear gradient to initial conditions, which were maintained for 5 min. The flow rate was 0.20 ml/min and injection volume 10 μl.

The mark [10] stands for this setting: D: Enterococcus faecalis ATCC29212, NA: no activity.
The mark [11] stands for this setting: F: Streptococcus pneumoniae #998, NA: no activity.
Setting [12] is: A: Staphylococcus aureus ATCC29213, NA: no activity.
Setting [13] is: B: Staphylococcus aureus ATCC33591 (resistant to methicillin), NA: no activity.
Where [14] appears, read: C: Staphylococcus intermedius #2357, NA: no activity.
Where [15] appears, read: E: Enterococcus faecium #17501 (vancomycin-resistant), NA: no activity.

As to `CN(C)CCNc1ccc(C(=O)/C=C/c2ccc(Cl)cc2Cl)cc1` [B022, (E)-3-(2,4-Dichloro-phenyl)-1-[4-(2-dimethylamino-ethylamino)-phenyl]-propenone], the IC50 in the data set with L. major promastigotes (L. major) worked out at 800 nM. The “activity against anaerobic bacteria” value in data set [1] is on record as “activity against all microorganisms within the test panel”.

In [2], `COc1ccc(/C=C/C(=O)c2ccccc2N(C)CCN(C)C)cc1` [B023, (E)-1-{2-[(2-Dimethylamino-ethyl)-methyl-amino]-phenyl}-3-(4-methoxy-phenyl)-propenone] showed a Solubility of 30600 µg/mL (≈ 90.4 mM).

As for `CCCCN(CCCC)c1cccc(/C=C/C(=O)c2ccccc2NCCCN(C)C)c1` [B033, (E)-3-(3-Dibutylamino-phenyl)-1-[2-(3-dimethylamino-propylamino)-phenyl]-propenone], the “activity against anaerobic bacteria” value in data set [1] is “activity against all microorganisms within the test panel”.

For `CCCN(CCC)c1cccc(/C=C/C(=O)c2ccccc2NCCN(C)C)c1` [B035, (E)-1-[2-(2-Dimethylamino-ethylamino)-phenyl]-3-(3-dipropylamino-phenyl)-propenone], the “activity against anaerobic bacteria” value in data set [1] is recorded as “activity against all microorganisms within the test panel”.

In the case of `CCCCN(CCCC)c1ccc(OC)c(/C=C/C(=O)c2ccccc2NCCN(C)C)c1` [B038, (E)-3-(5-Dibutylamino-2-methoxy-phenyl)-1-[2-(2-dimethylamino-ethylamino)-phenyl]-propenone], the “activity against anaerobic bacteria” value in data set [1] is “activity against all microorganisms within the test panel”.

`CN(C)CCNc1cccc(C(=O)/C=C/c2ccc(Cl)cc2Cl)c1` [B039, (E)-3-(2,4-Dichloro-phenyl)-1-[3-(2-dimethylamino-ethylamino)-phenyl]-40 propenone] showed an IC50 with L. major promastigotes (L. major) of 1000 nM. The “activity against anaerobic bacteria” value in data set [1] was “activity against all microorganisms within the test panel”.

For `CN(C)CCNc1ccc(C(=O)/C=C/c2cc(C(F)(F)F)cc(C(F)(F)F)c2)cc1` [B046, (E)-3-(3,5-Bis-trifluoromethyl-phenyl)-1-[4-(2-dimethylamino-ethylamino)-phenyl]-propenone], the “activity against anaerobic bacteria” value in [1] was “activity against all microorganisms within the test panel”.

Take `COc1cc(/C=C/C(=O)c2cccc(N(C)CCN(C)C)c2)cc(OC)c1` [B047, (E)-3-(3,5-Dimethoxy-phenyl)-1-{3-[(2-dimethylamino-ethyl)-methyl-amino]-phenyl}-propenone]: in the data set on L. major promastigotes (Leishmania Major, dose-response curve FIG. 7), the “times more potent than LicA” value came to 10.

For the compound `COc1ccccc1C(=O)/C=C/c1ccccc1N(C)CCN(C)C` [B056, (E)-3-{2-[(2-Dimethylamino-ethyl)-methyl-amino]-phenyl}-1-(2-methoxy-phenyl)-propenone], the Solubility in data set [2] was determined as 3200 µg/mL (≈ 9.45 mM).

Consider `CCCCc1ccc(/C=C/C(=O)c2ccc(N(C)CCN(C)C)cc2)cc1` [B060, (E)-3-(4-Butyl-phenyl)-1-{4-[(2-dimethylamino-ethyl)-methyl-amino]-phenyl}-propenone], for which the “activity against anaerobic bacteria” value in data set [1] is on record as “activity against all microorganisms within the test panel”.

As to `CN(C)CCNc1ccc(C(=O)/C=C/c2ccc3ccccc3n2)cc1` [B067, (E)-1-[4-(2-Dimethylamino-ethylamino)-phenyl]-3-quinolin-2-yl-propenone], the IC50 with L. major promastigotes (L. major) is 900 nM.

As for `COc1ccc(-c2ccccc2)cc1/C=C/C(=O)c1ccc(N(C)CCN(C)C)cc1` [B073, (E)-1-{4-[(2-Dimethylamino-ethyl)-methyl-amino]-phenyl}-3-(4-methoxy-biphenyl-3-yl)-propenone], the “activity against anaerobic bacteria” value in data set [1] is given as “activity against all microorganisms within the test panel”.

`COc1ccc(C(=O)/C=C/c2cc(-c3ccccc3OC)ccc2N2CCN(C)CC2)c(F)c1` [B083, (E)-1-(2-Fluoro-4-methoxy-phenyl)-3-[2′-methoxy-4-(4-methyl-piperazin-1-yl)-biphenyl-3-yl]-propenone] showed an IC50 in the data set on L. major promastigotes (L. major) of 500 nM. In addition, the MIC in data set [3] (setting [10]) was 18.8 µM (≈ 8.66 µg/mL); in [4] (setting [11]), 37.5 µM (≈ 17.3 µg/mL); in data set [5] (setting [12]), 4.7 µM (≈ 2.16 µg/mL); in [6] (setting [13]), 9.4 µM (≈ 4.33 µg/mL); in data set [7] (setting [14]) it was 9.4 µM (≈ 4.33 µg/mL); in the data set with Eschericia coli ESS it was 9.4 µM (≈ 4.33 µg/mL). Besides, the MIC in data set [8] (setting [15]) was found to be 9.4 µM (≈ 4.33 µg/mL).

As to `CCCCN(CCCC)c1ccc(/C=C/C(=O)c2cccc(NC(=O)CN(C)C)c2)cc1` [B089, (E)-N-{3-[3-(4-Dibutylamino-phenyl)-acryloyl]-phenyl}-2-dimethylamino-acetamide], the minimum inhibitory concentration (MIC) came to 9.4 µM (≈ 4.09 µg/mL) in data set [3] (Enterococcus faecalis, ATCC29212); 37.5 µM (≈ 16.3 µg/mL) in data set [4] (Streptococcus pneumoniae); 4.7 µM (≈ 2.05 µg/mL) in [5] (Staphylococcus aureus, ATCC29213); 4.7 µM (≈ 2.05 µg/mL) in data set [6] (Staphylococcus aureus, ATCC33591); 4.7 µM (≈ 2.05 µg/mL) in [7] (Staphylococcus intermedius); 9.4 µM (≈ 4.09 µg/mL) in data set [8] (Enterococcus faecium).

`COc1ccccc1-c1ccc(/C=C/C(=O)c2ccccc2CN(C)C)c(N2CCN(C)CC2)c1` [B096, (E)-1-(2-Dimethylaminomethyl-phenyl)-3-[2′-methoxy-3-(4-methyl-piperazin-1-yl)-biphenyl-4-yl]-propenone] showed an IC50 in the data set on L. major promastigotes (L. major) of 1200 nM.

Take `Cc1cc(C)cc(-c2ccc(N(C)CCN(C)C)c(/C=C/C(=O)c3cccc(NCCN(C)C)c3)c2)c1` [B113, (E)-1-[3-(2-Dimethylamino-ethylamino)-phenyl]-3-{4-[(2-dimethylamino-ethyl)-methyl-amino]-3′,5′-dimethyl-biphenyl-3-yl}-propenone]: in data set [9], the “Metabolic turn-over in vitro” value is given as 4%.

As for `COc1ccc(C(=O)/C=C/c2cc(-c3cc(C)cc(C)c3)ccc2N(C)CCN(C)C)c(CN(C)C)c1` [B114, (E)-3-{4-[(2-Dimethylamino-ethyl)-methyl-amino]-3′,5′-dimethyl-biphenyl-3-yl}-1-(2-dimethylaminomethyl-4-methoxy-phenyl)-propenone], the Solubility in data set [2] worked out at 4300 µg/mL (≈ 8.61 mM).

In data set [2], `CN(C)Cc1ccccc1C(=O)/C=C/c1cc(N2CCN(C)CC2)ccc1Br` [B124, (E)-3-[2-Bromo-5-(4-methyl-piperazin-1-yl)-phenyl]-1-(2-dimethylaminomethyl-phenyl)-propenone] came in with a Solubility of 2000 µg/mL (≈ 4.52 mM).

On to `CN(C)CCCNc1cc(Br)cc(/C=C/C(=O)c2ccccc2CN(C)C)c1` [B126, (E)-3-[3-Bromo-5-(3-dimethylamino-propylamino)-phenyl]-1-(2-dimethylaminomethyl-phenyl)-propenone], for which the Solubility in [2] is 8300 µg/mL (≈ 18.7 mM).

In the case of `COc1ccc(C(=O)/C=C/c2cc(-c3cc(C)cc(C)c3)ccc2N2CCN(C)CC2)c(F)c1` [B182, (E)-3-[3′,5′-Dimethyl-4-(4-methyl-piperazin-1-yl)-biphenyl-3-yl]-1-(2-fluoro-4-methoxy-phenyl)-propenone], the MIC turned out to be 9.4 µM (≈ 4.31 µg/mL) in data set [3] (setting [10]); 18.8 µM (≈ 8.62 µg/mL) in data set [4] (setting [11]); 4.7 µM (≈ 2.16 µg/mL) in data set [5] (setting [12]); 4.7 µM (≈ 2.16 µg/mL) in data set [6] (setting [13]); 4.7 µM (≈ 2.16 µg/mL) in data set [7] (setting [14]); 75 µM (≈ 34.4 µg/mL) with Eschericia coli ESS. In [8] (setting [15]), this compound came in with an MIC of 4.7 µM (≈ 2.16 µg/mL). In addition, the “Metabolic turn-over in vitro” value in data set [9] is 2%.

Consider `COc1ccccc1-c1ccc(N2CCN(C)CC2)c(/C=C/C(=O)c2ccccc2NS(=O)(=O)c2ccccc2)c1` [B185, (E)-N-(2-{3-[2′-Methoxy-4-(4-methyl-piperazin-1-yl)-biphenyl-3-yl]-acryloyl}-phenyl)-benzenesulfonamide], for which the IC50 with L. major promastigotes (Leishmania major) came out at 200 nM. Further, the “Metabolic turn-over in vitro” value in data set [9] is recorded as 0%.

Turning to `COc1ccccc1-c1ccc(/C=C/C(=O)c2ccccc2CN(C)CCN(C)C)c(N2CCN(C)CC2)c1` [B216, (E)-1-(2-{[(2-Dimethylamino-ethyl)-methyl-amino]-methyl}-phenyl)-3-[2′-methoxy-3-(4-methyl-piperazin-1-yl)-biphenyl-4-yl]-propenone], the “Metabolic turn-over in vitro” value in [9] was 6%.

The values above are taken from patent US7642367B2, “Diamino-functional chalcones” (Lica Pharmaceuticals A/S, priority 2002, dated 2010).
